Assay results: ChEMBL document CHEMBL3868641, “Discovery, characterization and biological evaluation of a novel (R)-4,4-difluoropiperidine scaffold as dopamine receptor 4 (D4R) antagonists” (Bioorg Med Chem Lett, 2016)

What was measured:
CHO-K1 [1] = test: Displacement of [3H] Spiperone from recombinant human Dopamine D4.4 receptor expressed in CHO-K1 cell membranes at 0.1 uM after 120 mins relative to control
[2] = Displacement of [3H]Spiperone from recombinant human Dopamine D4.4 receptor expressed in CHO-K1 cell membranes after 120 mins
[3] = Unbound fraction in rat plasma by HPLC/MS based equilibrium dialysis method; type: ADME, cell-free
[4] = Displacement of [3H]Spiperone from recombinant human Dopamine D4.4 receptor expressed in CHO-K1 cell membranes at 10 uM after 120 mins relative to control
[5] = Intrinsic clearance in rat liver microsomes by HPLC/MS analysis; type: ADME; conditions: read-out: CLH
[6] = Unbound fraction in human plasma by HPLC/MS based equilibrium dialysis method; type: ADME, cell-free
[7] = Drug uptake in rat brain at 0.25 mg/kg, iv administered through cassette dosing after 0.25 hrs by LC/MS/MS analysis; type: ADME, organism-based; conditions: for concentration at 0.25 h: brain, read-out: Drug uptake
[8] = Intrinsic clearance in human liver microsomes by HPLC/MS analysis; type: ADME; conditions: read-out: CLH
[9] = Plasma concentration in rat at 0.25 mg/kg, iv administered through cassette dosing after 0.25 hrs by LC/MS/MS analysis; type: ADME, organism-based
[10] = Displacement of [3H] Spiperone from recombinant human Dopamine D4.4 receptor expressed in CHO-K1 cell membranes at 1 uM after 120 mins relative to control
[11] = Ratio of drug level in brain to plasma in rat at 0.25 mg/kg, iv administered through cassette dosing after 0.25 hrs by LC/MS/MS analysis; type: ADME, organism-based
[12] = biological target: D(1B) dopamine receptor (Homo sapiens) (UniProt P21918); test: Displacement of [3H]SCH-23390 from recombinant human Dopamine D5 receptor expressed in CHO cell membranes at 10 uM after 120 mins relative to control
Sequence of D(1B) dopamine receptor (Homo sapiens) (P21918 whole entry): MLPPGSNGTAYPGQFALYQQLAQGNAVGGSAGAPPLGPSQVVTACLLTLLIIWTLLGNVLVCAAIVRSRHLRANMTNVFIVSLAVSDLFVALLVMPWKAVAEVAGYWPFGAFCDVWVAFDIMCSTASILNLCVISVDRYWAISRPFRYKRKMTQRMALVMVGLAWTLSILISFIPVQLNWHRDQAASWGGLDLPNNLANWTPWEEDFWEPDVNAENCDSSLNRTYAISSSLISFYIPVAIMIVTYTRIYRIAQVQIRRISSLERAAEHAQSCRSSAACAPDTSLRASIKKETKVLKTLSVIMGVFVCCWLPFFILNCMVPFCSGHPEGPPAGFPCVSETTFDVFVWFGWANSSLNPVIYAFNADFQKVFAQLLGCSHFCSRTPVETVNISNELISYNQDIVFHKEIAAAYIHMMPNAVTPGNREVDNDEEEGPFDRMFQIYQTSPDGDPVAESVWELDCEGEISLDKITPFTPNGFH

[13] = biological target: D(1A) dopamine receptor (Homo sapiens) (UniProt P21728); test: Displacement of [3H]SCH-23390 from recombinant human Dopamine D1 receptor expressed in CHO cell membranes at 10 uM after 120 mins relative to control
Sequence of D(1A) dopamine receptor (Homo sapiens) (P21728 whole entry): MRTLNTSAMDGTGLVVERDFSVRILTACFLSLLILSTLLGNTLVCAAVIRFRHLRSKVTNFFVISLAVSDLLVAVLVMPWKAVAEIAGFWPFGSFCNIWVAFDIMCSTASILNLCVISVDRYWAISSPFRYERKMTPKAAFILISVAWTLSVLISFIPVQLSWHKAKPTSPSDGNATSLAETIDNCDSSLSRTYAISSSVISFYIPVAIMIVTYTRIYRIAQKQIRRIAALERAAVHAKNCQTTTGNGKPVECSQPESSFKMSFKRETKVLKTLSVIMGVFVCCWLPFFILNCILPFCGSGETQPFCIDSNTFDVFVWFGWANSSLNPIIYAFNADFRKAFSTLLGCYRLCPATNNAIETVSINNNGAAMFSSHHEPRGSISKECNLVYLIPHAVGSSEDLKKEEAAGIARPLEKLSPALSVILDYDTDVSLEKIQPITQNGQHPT

[14] = biological target: D(2) dopamine receptor (Homo sapiens) (UniProt P14416); test: Displacement of [3H]Spiperone from recombinant human Dopamine D2L receptor expressed in CHO cell membranes at 10 uM after 120 mins relative to control
Sequence of D(2) dopamine receptor (Homo sapiens) (P14416 whole entry): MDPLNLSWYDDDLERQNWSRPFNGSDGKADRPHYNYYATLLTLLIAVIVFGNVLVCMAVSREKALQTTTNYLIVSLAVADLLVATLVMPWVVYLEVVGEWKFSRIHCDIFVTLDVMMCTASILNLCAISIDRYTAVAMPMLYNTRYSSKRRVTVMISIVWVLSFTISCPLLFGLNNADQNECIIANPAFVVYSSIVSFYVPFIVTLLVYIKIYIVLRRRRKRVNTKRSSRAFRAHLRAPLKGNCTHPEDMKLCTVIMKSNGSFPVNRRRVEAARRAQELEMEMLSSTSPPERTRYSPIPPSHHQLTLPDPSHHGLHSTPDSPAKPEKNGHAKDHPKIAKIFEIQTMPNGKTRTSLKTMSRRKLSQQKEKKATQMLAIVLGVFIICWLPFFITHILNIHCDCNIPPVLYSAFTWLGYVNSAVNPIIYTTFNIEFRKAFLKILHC

[15] = biological target: D(3) dopamine receptor (Homo sapiens) (UniProt P35462); test: Displacement of [3H]Spiperone from recombinant human Dopamine D3 receptor expressed in CHO cell membranes at 10 uM after 120 mins relative to control
Sequence of D(3) dopamine receptor (Homo sapiens) (P35462 whole entry): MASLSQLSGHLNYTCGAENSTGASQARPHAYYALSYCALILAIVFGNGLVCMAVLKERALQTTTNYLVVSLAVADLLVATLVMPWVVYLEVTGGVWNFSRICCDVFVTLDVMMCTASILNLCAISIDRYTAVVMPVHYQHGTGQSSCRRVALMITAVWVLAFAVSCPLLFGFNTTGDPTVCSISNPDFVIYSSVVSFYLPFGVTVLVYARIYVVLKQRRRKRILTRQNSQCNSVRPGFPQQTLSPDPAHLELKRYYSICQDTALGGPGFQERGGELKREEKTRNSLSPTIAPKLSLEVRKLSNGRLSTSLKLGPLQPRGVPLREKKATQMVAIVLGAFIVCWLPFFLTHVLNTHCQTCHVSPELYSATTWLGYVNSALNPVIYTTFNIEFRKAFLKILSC

[16] = biological target: D(2) dopamine receptor (Homo sapiens) (UniProt P14416); test: Displacement of [3H]Spiperone from recombinant human Dopamine D2S receptor expressed in CHO cell membranes at 10 uM after 120 mins relative to control
CHO-K1 [17] = test: Displacement of [3H] Spiperone from recombinant human Dopamine D4.4 receptor expressed in CHO-K1 cell membranes at 10 nM after 120 mins relative to control

| Structure (SMILES) | IC50 [2] | fraction unbound [3] | CLint scaled [5] | fraction unbound [6] | Drug uptake ([7]; in vivo, 0.25 h, BLD = below limit of detection) | CLint scaled [8] | concentration at 0.25 h [9] | concentration at 0.25 h [7] | Kp at 0.25 h [11] | inhibition [12] | inhibition [13] | inhibition [14] | inhibition [15] | inhibition [16] | inhibition (CHO-K1 [1]) | Ki [2] | inhibition [4] | inhibition [10] | inhibition (CHO-K1 [17]) |
| --- | --- | --- | --- | --- | --- | --- | --- | --- | --- | --- | --- | --- | --- | --- | --- | --- | --- | --- | --- |
| Fc1ccc2[nH]cc(CN3CCC(F)(F)[C@@H](CCc4ccccc4)C3)c2c1 | – | 0.001 | 1910 mL/min/kg | 0.001 | Bld | 70.5 mL/min/kg | 25.3 ng/mL | – | – | – | – | – | – | – | – | – | 55% | – | – |
| Fc1ccccc1CC[C@@H]1CN(Cc2c[nH]c3cc(Cl)ccc23)CCC1(F)F | 190 nM | 0.002 | 1300 mL/min/kg | 0.005 | – | 156 mL/min/kg | 54.8 ng/mL | 23.5 ng/g | 0.4 | – | – | – | – | – | – | 53 nM | – | 84% | – |
| FC1(F)CCN(Cc2c[nH]c3cc(Cl)ccc23)C[C@H]1CCc1ccccc1 | 64 nM | – | – | – | – | – | – | – | – | – | – | – | – | – | – | 17.7 nM | – | 59% | – |
| Fc1ccc2[nH]cc(CN3CCC(F)(F)[C@H](CCc4ccccc4)C3)c2c1 | 59 nM | – | – | – | – | – | – | – | – | – | – | – | – | – | – | 16.4 nM | – | 66% | – |
| Cc1ccc(CN2CCC(F)(F)[C@H](CCc3ccccc3)C2)cc1C | 230 nM | 0.004 | 1670 mL/min/kg | 0.005 | – | 108 mL/min/kg | 44.4 ng/mL | 93.7 ng/g | 2.1 | – | – | – | – | – | – | 63 nM | 77% | – | – |
| COc1ccc2c(CN3CCC(F)(F)[C@H](CCc4cccc(F)c4)C3)c[nH]c2c1 | 18.6 nM | 0.002 | 1060 mL/min/kg | 0.003 | – | 300 mL/min/kg | 39 ng/mL | 43.5 ng/g | 1.1 | < 50% | < 50% | 53% | 85% | < 50% | 83% | 5.2 nM | – | – | – |
| COc1ccc2c(CN3CCC(F)(F)[C@@H](CCc4cccc(F)c4)C3)c[nH]c2c1 | 530 nM | – | – | – | – | – | – | – | – | – | – | – | – | – | – | 150 nM | – | 62% | – |
| COc1ccc2cc(CN3CCC(F)(F)[C@H](CCc4ccccc4)C3)c(OC)nc2c1 | 88 nM | – | – | – | – | – | – | – | – | – | – | – | – | – | – | 24 nM | – | 53% | – |

Second part, led by results:

| IC50 [2] | fraction unbound [3] | CLint scaled [5] | fraction unbound [6] | Drug uptake ([7]; in vivo, 0.25 h, BLD = below limit of detection) | CLint scaled [8] | concentration at 0.25 h [9] | concentration at 0.25 h [7] | Kp at 0.25 h [11] | inhibition [12] | inhibition [13] | inhibition [14] | inhibition [15] | inhibition [16] | Structure (SMILES) | inhibition (CHO-K1 [1]) | Ki [2] | inhibition [4] | inhibition [10] | inhibition (CHO-K1 [17]) |
| --- | --- | --- | --- | --- | --- | --- | --- | --- | --- | --- | --- | --- | --- | --- | --- | --- | --- | --- | --- |
| 620 nM | – | – | – | – | – | – | – | – | – | – | – | – | – | COc1ccc2c(CN3CCC(F)(F)[C@@H](CCc4ccc(F)cc4)C3)c[nH]c2c1 | 64% | 170 nM | – | – | – |
| 320 nM | – | – | – | – | – | – | – | – | < 50% | < 50% | < 50% | 52% | < 50% | Fc1ccc(CC[C@H]2CN(Cc3c[nH]c4cc(F)ccc34)CCC2(F)F)cc1 | – | 89 nM | – | 75% | – |
| 23 nM | 0.014 | 2490 mL/min/kg | 0.001 | – | 111 mL/min/kg | 28.6 ng/mL | 100 ng/g | 3.5 | – | – | – | – | – | Fc1ccc2c(CN3CCC(F)(F)[C@H](CCc4ccccc4)C3)c[nH]c2c1 | – | 6.3 nM | – | 79% | – |
| 21 nM | 0.003 | 582 mL/min/kg | 0.001 | – | 99 mL/min/kg | 14.9 ng/mL | 19.6 ng/g | 1.3 | < 50% | < 50% | 51% | < 50% | < 50% | Fc1ccc(CC[C@@H]2CN(Cc3c[nH]c4cc(Cl)ccc34)CCC2(F)F)cc1 | 85% | 5.8 nM | – | – | – |
| 490 nM | – | – | – | – | – | – | – | – | < 50% | < 50% | 57% | 54% | < 50% | Fc1ccc2c(CN3CCC(F)(F)[C@@H](CCc4ccccc4F)C3)c[nH]c2c1 | – | 140 nM | – | 66% | – |
| 7 nM | 0.009 | 957 mL/min/kg | 0.018 | – | 298 mL/min/kg | 9.2 ng/mL | 30.3 ng/g | 3.3 | < 30% | < 30% | 67% | 52% | < 30% | COc1ccc2c(CN3CCC(F)(F)[C@H](CCc4ccc(F)cc4)C3)c[nH]c2c1 | – | 1.9 nM | – | – | 63% |
| 7.4 nM | 0.011 | – | 0.004 | – | – | 13.2 ng/mL | 25.5 ng/g | 1.9 | < 50% | < 50% | 53% | 85% | < 50% | Fc1ccc(CC[C@@H]2CN(Cc3c[nH]c4cc(F)ccc34)CCC2(F)F)cc1 | – | 2.1 nM | – | – | 59% |
| 14.1 nM | 0.05 | – | 0.005 | – | – | 30.4 ng/mL | 38.9 ng/g | 1.3 | < 50% | < 50% | 51% | 65% | < 50% | Fc1ccc2c(CN3CCC(F)(F)[C@H](CCc4ccccc4F)C3)c[nH]c2c1 | 85% | 3.9 nM | – | – | – |
